Laboratory results: US11547697B2, “Heterocyclic compounds and uses thereof” (MILLENNIUM PHARMACEUTICALS, INC., priority 2009, dated 2023)
Where two headings read alike, the source gives them in different places.

Tests used:
p110δ/p85α = p110δ/p85α (Homo sapiens (Human), UniProt O00329); assay: PI 3-Kinase (human) HTRF assay, p110δ/p85α; type: biochemical; settings: read-out: PI3K δ IC50
Experimental: An exemplary system is PI 3-Kinase (human) HTRF™ Assay from Upstate. […] Briefly, the assay is a time resolved FRET assay that indirectly measures PIP3 product formed by the activity of a PI3-K. The kinase reaction is performed in a microtitre plate (e.g., a 384 well microtitre plate). The total reaction volume is approximately 20 ul per well. In the first step, each well receives 2 ul of test compound in 20% dimethylsulphoxide resulting in a 2% DMSO final concentration. Next, approximately 14.5 ul of a kinase/PIP2 mixture (diluted in 1× reaction buffer) is added per well for a final concentration of 0.25-0.3 ug/ml kinase and 10 μM PIP2. The plate is sealed and incubated for 15 minutes at room temperature. To start the reaction, 3.5 ul of ATP (diluted in 1× reaction buffer) is added per well for a final concentration of 10 μM ATP. The plate is sealed and incubated for 1 hour at room temperature. The reaction is stopped by adding 5 ul of Stop Solution per well and then 5 ul of Detection Mix is added per well. The plate is sealed, incubated for 1 hour at room temperature, and then read on an appropriate plate reader. Data is analyzed and IC50s are generated using GraphPad Prism 5. […] For PI3K α, β, δ, and γ, the nM concentration of inhibitor to reach IC50 is provided.

recombinant mTOR = recombinant mTOR (Homo sapiens (Human), UniProt P42345); assay: mTOR inhibition assay (radiometric or LanthaScreen TR-FRET); type: biochemical; settings: read-out: MTORC IC50
Experimental: The compounds described herein can be tested against recombinant mTOR (Invitrogen) in an assay containing 50 mM HEPES, pH 7.5, 1 mM EGTA, 10 mM MgCl2, 2.5 mM, 0.01% Tween, 10 pM ATP (2.5 μCi of μ-32P-ATP), and 3 μg/mL BSA. R^at recombinant PHAS-1/4EBP1 (Calbiochem; 2 mg/mL) is used as a substrate. Reactions are terminated by spotting onto nitrocellulose, which is washed with 1M NaCl/1% phosphoric acid (approximately 6 times, 5-10 minutes each). Sheets are dried and the transferred radioactivity quantitated by phosphorimaging.
For instance, one can use Invitrogen's LanthaScreen™ Kinase assay to test the inhibitors of mTOR disclosed herein. This assay is a time resolved FRET platform that measures the phosphorylation of GFP labeled 4EBP1 by mTOR kinase. The kinase reaction is performed in a white 384 well microtitre plate. The total reaction volume is 20 ul per well and the reaction buffer composition is 50 mM HEPES pH7.5, 0.01% Polysorbate 20, 1 mM EGTA, 10 mM MnCl2, and 2 mM DTT. In the first step, each well receives 2 ul of test compound in 20% dimethylsulphoxide resulting in a 2% DMSO final concentration. Next, 8 ul of mTOR diluted in reaction buffer is added per well for a 60 ng/ml final concentration. To start the reaction, 10 ul of an ATP/GFP-4EBP1 mixture (diluted in reaction buffer) is added per well for a final concentration of 10 μM ATP and 0.5 μM GFP-4EBP1. The plate is sealed and incubated for 1 hour at room temperature. […] The plate is sealed, incubated for 1 hour at room temperature, and then read on a plate reader set up for LanthaScreen™ TR-FRET. Data is analyzed and IC50s are generated using GraphPad Prism 5.

p110α/p85α = p110α/p85α (Homo sapiens (Human), UniProt P42336); assay: PI 3-Kinase (human) HTRF assay, p110α/p85α; type: biochemical; settings: read-out: PI3K α IC50
p110γ = p110γ (Homo sapiens (Human), UniProt P48736); assay: PI 3-Kinase (human) HTRF assay, p110γ; type: biochemical; settings: read-out: PI3K γ IC50
p110β/p85α = p110β/p85α (Homo sapiens (Human), UniProt P42338); assay: PI 3-Kinase (human) HTRF assay, p110β/p85α; type: biochemical; settings: read-out: PI3K β IC50
[1] = test system: tumor cells with a PI3Kα mutation (e.g., MDA-MB-361 and T47D); assay: Proliferation of tumor cells with PI3Kα mutation; type: cell-based; settings: Homo sapiens; T47D cells; read-out: T47D proliferation

Chain of p110α/p85α (P42336 whole entry): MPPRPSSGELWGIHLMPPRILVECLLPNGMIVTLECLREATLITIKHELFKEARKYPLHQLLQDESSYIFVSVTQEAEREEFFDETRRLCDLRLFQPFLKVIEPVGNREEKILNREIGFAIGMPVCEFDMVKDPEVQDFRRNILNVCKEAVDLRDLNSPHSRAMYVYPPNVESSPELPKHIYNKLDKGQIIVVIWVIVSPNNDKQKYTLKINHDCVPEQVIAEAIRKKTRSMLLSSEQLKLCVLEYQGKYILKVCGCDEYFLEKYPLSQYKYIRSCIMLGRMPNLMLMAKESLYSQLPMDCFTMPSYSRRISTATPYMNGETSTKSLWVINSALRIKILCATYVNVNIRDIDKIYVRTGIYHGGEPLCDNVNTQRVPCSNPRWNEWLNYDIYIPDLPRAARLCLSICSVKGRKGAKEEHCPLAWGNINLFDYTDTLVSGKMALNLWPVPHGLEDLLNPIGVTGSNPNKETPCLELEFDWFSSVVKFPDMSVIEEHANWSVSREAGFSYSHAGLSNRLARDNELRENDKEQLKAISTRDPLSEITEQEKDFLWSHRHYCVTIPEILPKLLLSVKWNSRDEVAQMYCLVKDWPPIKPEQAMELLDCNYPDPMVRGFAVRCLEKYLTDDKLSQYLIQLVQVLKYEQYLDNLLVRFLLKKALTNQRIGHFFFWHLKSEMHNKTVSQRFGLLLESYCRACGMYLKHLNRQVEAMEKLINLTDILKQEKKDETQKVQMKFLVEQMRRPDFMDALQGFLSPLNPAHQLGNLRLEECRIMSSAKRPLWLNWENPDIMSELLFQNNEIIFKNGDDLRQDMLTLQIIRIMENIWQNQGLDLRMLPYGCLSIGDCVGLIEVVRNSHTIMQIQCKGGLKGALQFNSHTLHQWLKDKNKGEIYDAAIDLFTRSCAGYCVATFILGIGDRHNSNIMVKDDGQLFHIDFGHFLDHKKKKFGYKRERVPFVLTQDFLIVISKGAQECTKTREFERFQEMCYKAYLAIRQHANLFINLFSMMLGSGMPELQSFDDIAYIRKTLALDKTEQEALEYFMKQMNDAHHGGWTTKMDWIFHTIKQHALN
Chain of p110α/p85α (P27986 whole entry partner): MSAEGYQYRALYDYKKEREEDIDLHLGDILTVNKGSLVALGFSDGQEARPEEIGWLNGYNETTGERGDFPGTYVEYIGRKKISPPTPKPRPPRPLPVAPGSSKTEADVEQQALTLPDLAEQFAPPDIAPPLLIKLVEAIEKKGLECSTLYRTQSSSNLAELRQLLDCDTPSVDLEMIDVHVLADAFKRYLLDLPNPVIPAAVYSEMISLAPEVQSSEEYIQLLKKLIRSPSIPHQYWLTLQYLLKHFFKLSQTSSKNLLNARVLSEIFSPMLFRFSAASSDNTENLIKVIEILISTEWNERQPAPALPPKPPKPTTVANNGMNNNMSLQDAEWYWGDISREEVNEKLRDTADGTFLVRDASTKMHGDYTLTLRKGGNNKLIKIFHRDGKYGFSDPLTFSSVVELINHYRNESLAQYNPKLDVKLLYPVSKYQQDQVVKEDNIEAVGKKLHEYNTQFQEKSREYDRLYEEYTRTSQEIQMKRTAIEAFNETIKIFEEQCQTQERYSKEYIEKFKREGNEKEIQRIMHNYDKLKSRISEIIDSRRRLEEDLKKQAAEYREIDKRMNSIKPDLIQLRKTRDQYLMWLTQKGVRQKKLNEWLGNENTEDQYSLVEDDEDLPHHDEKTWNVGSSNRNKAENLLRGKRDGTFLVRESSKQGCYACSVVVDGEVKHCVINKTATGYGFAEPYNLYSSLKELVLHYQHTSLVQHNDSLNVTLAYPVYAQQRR
Chain of recombinant mTOR (P42345 1360-2549): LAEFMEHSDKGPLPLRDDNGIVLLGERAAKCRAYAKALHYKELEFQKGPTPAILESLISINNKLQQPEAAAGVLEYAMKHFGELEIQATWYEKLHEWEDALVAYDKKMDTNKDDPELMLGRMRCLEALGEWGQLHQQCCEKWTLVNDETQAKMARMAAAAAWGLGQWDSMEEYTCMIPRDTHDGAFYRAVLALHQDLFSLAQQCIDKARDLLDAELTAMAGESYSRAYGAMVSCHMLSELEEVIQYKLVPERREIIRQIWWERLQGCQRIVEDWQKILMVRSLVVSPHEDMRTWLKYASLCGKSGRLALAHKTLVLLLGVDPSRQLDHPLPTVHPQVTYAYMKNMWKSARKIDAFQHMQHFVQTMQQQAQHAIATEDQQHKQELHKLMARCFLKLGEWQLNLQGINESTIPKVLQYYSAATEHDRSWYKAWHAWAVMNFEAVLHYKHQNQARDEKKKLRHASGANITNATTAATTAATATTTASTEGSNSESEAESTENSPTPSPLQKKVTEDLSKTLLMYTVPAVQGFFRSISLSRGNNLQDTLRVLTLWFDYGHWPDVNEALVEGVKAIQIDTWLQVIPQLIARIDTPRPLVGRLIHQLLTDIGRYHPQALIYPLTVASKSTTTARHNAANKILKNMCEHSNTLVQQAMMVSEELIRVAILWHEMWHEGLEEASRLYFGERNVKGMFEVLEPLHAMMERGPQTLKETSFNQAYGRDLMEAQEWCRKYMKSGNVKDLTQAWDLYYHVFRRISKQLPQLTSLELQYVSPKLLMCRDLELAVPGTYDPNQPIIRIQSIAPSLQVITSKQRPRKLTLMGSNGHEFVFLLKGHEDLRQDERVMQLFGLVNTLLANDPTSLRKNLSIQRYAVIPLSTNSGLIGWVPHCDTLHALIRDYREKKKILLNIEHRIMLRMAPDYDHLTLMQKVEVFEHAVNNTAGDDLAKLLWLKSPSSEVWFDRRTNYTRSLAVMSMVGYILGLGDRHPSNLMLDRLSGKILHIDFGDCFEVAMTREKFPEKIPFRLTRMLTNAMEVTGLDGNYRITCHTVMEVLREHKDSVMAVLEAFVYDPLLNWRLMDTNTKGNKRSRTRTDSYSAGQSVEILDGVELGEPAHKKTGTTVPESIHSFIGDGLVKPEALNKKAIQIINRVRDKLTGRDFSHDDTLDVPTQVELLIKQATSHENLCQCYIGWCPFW
Chain of p110β/p85α (P42338 whole entry): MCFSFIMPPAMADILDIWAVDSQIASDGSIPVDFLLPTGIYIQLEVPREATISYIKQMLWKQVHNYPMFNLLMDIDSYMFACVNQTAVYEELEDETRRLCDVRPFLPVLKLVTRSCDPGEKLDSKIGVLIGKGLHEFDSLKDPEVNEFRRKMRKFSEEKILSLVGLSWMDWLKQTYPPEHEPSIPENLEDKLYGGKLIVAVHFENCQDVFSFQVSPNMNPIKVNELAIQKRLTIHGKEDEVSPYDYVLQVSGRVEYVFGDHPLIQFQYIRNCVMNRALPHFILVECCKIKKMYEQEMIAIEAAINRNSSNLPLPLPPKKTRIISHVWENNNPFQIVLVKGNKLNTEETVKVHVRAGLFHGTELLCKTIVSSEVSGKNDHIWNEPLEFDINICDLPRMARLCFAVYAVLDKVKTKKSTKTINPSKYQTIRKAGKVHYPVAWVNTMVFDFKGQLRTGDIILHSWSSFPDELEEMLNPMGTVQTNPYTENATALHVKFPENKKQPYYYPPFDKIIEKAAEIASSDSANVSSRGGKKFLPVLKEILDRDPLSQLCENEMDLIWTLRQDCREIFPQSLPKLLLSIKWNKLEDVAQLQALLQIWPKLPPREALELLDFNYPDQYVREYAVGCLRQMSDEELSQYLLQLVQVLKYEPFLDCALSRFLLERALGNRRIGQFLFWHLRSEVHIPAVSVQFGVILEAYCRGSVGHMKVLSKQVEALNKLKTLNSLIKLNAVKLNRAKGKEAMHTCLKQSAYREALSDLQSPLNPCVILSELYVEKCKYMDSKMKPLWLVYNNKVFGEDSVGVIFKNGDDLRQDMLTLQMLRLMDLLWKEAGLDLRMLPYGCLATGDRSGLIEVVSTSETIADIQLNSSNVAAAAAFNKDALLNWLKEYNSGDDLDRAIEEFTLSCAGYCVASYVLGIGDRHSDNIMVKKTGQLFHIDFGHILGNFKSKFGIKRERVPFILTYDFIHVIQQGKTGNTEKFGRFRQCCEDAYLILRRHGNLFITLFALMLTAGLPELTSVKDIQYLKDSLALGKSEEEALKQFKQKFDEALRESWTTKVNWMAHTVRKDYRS
Chain of p110β/p85α (P27986 whole entry partner): as the sequence (P27986 whole entry partner) above

Compound	IC50 (p110δ/p85α) [µM]	IC50 (recombinant mTOR) [µM]	IC50 (p110α/p85α) [µM]	IC50 (p110γ) [µM]	IC50 (p110β/p85α) [µM]	IC50 [1] [µM]	IC50 (p110δ/p85α; in vitro) [µM]	IC50 (recombinant mTOR; in vitro) [µM]	IC50 (p110α/p85α; in vitro) [µM]	IC50 (p110γ; in vitro) [µM]	IC50 (p110β/p85α; in vitro) [µM]
Nc1nc2ccc(-c3ccc4nccc(-c5ccncc5)c4c3)cc2s1 [compound 3]	< 1	< 1	< 0.1	< 1							
Nc1ccc2cc(-c3ccc4nccc(-c5ccncc5)c4c3)ccc2n1 [compound 5]	< 10	< 1	< 1	< 1							
Nc1nc2cccc(-c3ccc4nccc(-c5ccncc5)c4c3)c2o1 [compound 15]	< 1	< 0.1	< 0.1	< 1	< 0.1						
Cn1cc(-c2ccnc3ccc(-c4ccc5oc(N)nc5c4)cc23)cn1 [compound 26]	< 0.1	< 1	< 0.1	< 0.1							
CN1CCC(n2cnc3ccc(-c4ccc5oc(N)nc5c4)cc3c2=O)CC1 [compound 36]	< 10	< 10	< 0.1			< 10					
Nc1nc2cc(-c3ccc4nccn4c3)ccc2o1 [compound 40]		< 10	< 10	< 10							
CN1CCN(C(=O)c2cnc3ccc(-c4ccc5oc(N)nc5c4)cn23)CC1 [compound 44]	< 10	< 10	< 0.1	< 10							
N#Cc1cnc2ccc(-c3ccc4oc(N)nc4c3)cc2c1-c1ccncc1 [compound 46]	< 0.1	< 0.1	< 0.1	< 0.1							
Nc1nc2cc(-c3ccc4ncc(-c5ccnc(N6CCOCC6)c5)n4c3)ccc2o1 [compound 52]	< 0.1	< 10	< 0.1	< 0.1							
Cc1nc2ccc(-c3ccc4oc(N)nc4c3)nn2c1-c1ccncc1 [compound 56]		< 1	< 0.1	< 0.1	< 1	< 10					
CC(=O)N1CCC(Nc2ncnc3ccc(-c4ccc5oc(N)nc5c4)cc23)CC1 [compound 60]	< 1	< 1	< 0.1	< 0.1	< 10						
Nc1nc2cc(-c3ccn4ncc(-c5ccncc5)c4n3)ccc2o1 [compound 62]	< 0.1	< 0.1	< 0.1	< 0.1	< 0.1						
Nc1nc2cc(-c3ccc4ncc(N5CCOCC5)nc4c3)ccc2o1 [compound 64]		< 10	< 0.1	< 0.1	< 1	< 10					
Nc1nc2cc(-c3ccc4ncc(=O)[nH]c4c3)ccc2o1 [compound 72]		< 1	< 0.1	< 0.1	< 1						
CC(C)N1CCC(n2cnc3ccc(-c4ccc5oc(N)nc5c4)cc3c2=O)CC1 [compound 74]		< 10	< 0.1	< 10	< 10	< 10					
Nc1nc2cc(-c3ccc4ncc(-c5cccnc5)nc4c3)ccc2o1 [compound 76]		< 10	< 0.1	< 1		< 10					
N#Cc1cnc2ccc(-c3ccc4oc(N)nc4c3)cc2c1Cl [compound 77]		< 1									
N#Cc1cnc2ccc(-c3ccc4oc(N)nc4c3)cc2c1 [compound 93]		< 10	< 1	< 1							
Nc1nc2cc(-c3ccc4nc(N)sc4c3)ccc2o1 [compound 232]							< 10	< 10	< 1	< 0.1	< 1
CC(=O)Nc1ncc(-c2ccc3oc(N)nc3c2)s1 [compound 235]							< 10	< 10	< 10	< 10	
CC(C)Oc1nc(-c2ccc3oc(N)nc3c2)cnc1N [compound 237]								< 1	< 10	< 10	< 10
Nc1nc2cc(-c3ccc4oc(N)nc4c3)ccc2o1 [compound 240]							< 10	< 10	< 1	< 0.1	
